Molecular target: SARS-CoV 3CL^pro (Severe acute respiratory syndrome coronavirus, UniProt P0C6X7)
Type: biochemical

Row | SMILES | Inhibition type
1 | COc1ccc(-c2cc(=O)c3c(O)cc(O)c(-c4cc(-c5cc(=O)c6c(O)cc(OC)cc6o5)ccc4OC)c3o2)cc1 [Compound 12, sciadopitysin] | Noncompetitive (35.6 ± 1.1)
2 | COc1ccc(-c2cc(=O)c3c(O)cc(O)cc3o2)cc1-c1c(O)cc(O)c2c(=O)cc(-c3ccc(O)cc3)oc12 [Compound 10, bilobetin] | Noncompetitive (80.4 ± 4.0)
3 | COc1cc(O)c2c(=O)cc(-c3ccc(OC)c(-c4c(O)cc(O)c5c(=O)cc(-c6ccc(O)cc6)oc45)c3)oc2c1 [Compound 11, ginkgetin] | Noncompetitive (30.2 ± 2.6)
4 | O=c1cc(-c2ccc(O)c(-c3c(O)cc(O)c4c(=O)cc(-c5ccc(O)cc5)oc34)c2)oc2cc(O)cc(O)c12 [Compound 9, amentoflavone] | Noncompetitive (13.8 ± 1.5)

Reference: article PMC7126309 (Bioorganic & Medicinal Chemistry, 2010)
